Numbers after ± are expanded uncertainties.
Assay: mn = molality of the nth substance listed, in mol/kg
Conditions: 100 kPa, Liquid, Frequency=2 MHz, Linear variable-path acoustic interferometer

O=P([O-])([O-])[O-].[K+].[K+].[K+] [tripotassium phosphate] + O
speed of sound [m/s]
Conditions | 288.15 K | 298.15 K | 308.15 K | 318.15 K
m1 = 0.5 | 1586.2 ± 20 | 1598.1 ± 20 | 1609.9 ± 20 | 1622.6 ± 20
m1 = 1 | 1693.5 ± 20 | 1698.6 ± 20 | 1704.1 ± 20 | 1708 ± 20
m1 = 1.5 | 1789.2 ± 20 | 1791.8 ± 20 | 1793.8 ± 20 | 1796 ± 20
m1 = 2 | 1878.3 ± 20 | 1882.5 ± 20 | 1885.8 ± 20 | 1889.4 ± 20

O=P([O-])(O)O.[Na+] [sodium dihydrogen phosphate] + O
speed of sound [m/s]
Conditions | 288.15 K | 298.15 K | 308.15 K | 318.15 K
m1 = 0.5 | 1516.7 ± 20 | 1547.3 ± 20 | 1567.5 ± 20 | 1582.6 ± 20
m1 = 1 | 1563.2 ± 20 | 1598 ± 20 | 1618.9 ± 20 | 1638.8 ± 20
m1 = 1.5 | 1607.3 ± 20 | 1649 ± 20 | 1675 ± 20 | 1704.8 ± 20
m1 = 2 | 1649.2 ± 20 | 1700.3 ± 20 | 1735.7 ± 20 | 1782.8 ± 20

OC[C@H]1OC(O)C[C@@H](O)[C@@H]1O (stereo partly drawn) [2-deoxy-D-glucose] + O
speed of sound [m/s]
Conditions | m1 = 0.04452 | m1 = 0.06258 | m1 = 0.08916 | m1 = 0.09804 | m1 = 0.1031 | m1 = 0.1275
288.15 K | 1468.5 ± 20 | 1469.6 ± 20 | 1471.1 ± 20 | 1471.6 ± 20 | 1471.9 ± 20 | 1473.2 ± 20
298.15 K | 1499.2 ± 20 | 1500.1 ± 20 | 1501.4 ± 20 | 1501.9 ± 20 | 1502.1 ± 20 | 1503.3 ± 20
308.15 K | 1522.1 ± 20 | 1523 ± 20 | 1524.3 ± 20 | 1524.7 ± 20 | 1524.9 ± 20 | 1526.1 ± 20
318.15 K | 1538.2 ± 20 | 1539 ± 20 | 1540.1 ± 20 | 1540.5 ± 20 | 1540.7 ± 20 | 1541.6 ± 20

CO[C@H]1O[C@H](CO)[C@@H](O)[C@H](O)[C@H]1O [methyl-α-D-glucopyranoside] + O
speed of sound [m/s]
Conditions | m1 = 0.05678 | m1 = 0.06847 | m1 = 0.08732 | m1 = 0.1192 | m1 = 0.1293 | m1 = 0.1466
288.15 K | 1470.7 ± 20 | 1471.7 ± 20 | 1473.2 ± 20 | 1475.8 ± 20 | 1476.6 ± 20 | 1478 ± 20
298.15 K | 1501.2 ± 20 | 1502 ± 20 | 1503.5 ± 20 | 1506 ± 20 | 1506.7 ± 20 | 1508 ± 20
308.15 K | 1524 ± 20 | 1524.9 ± 20 | 1526.3 ± 20 | 1528.6 ± 20 | 1529.4 ± 20 | 1530.6 ± 20
318.15 K | 1540.5 ± 20 | 1541.3 ± 20 | 1542.7 ± 20 | 1545 ± 20 | 1545.7 ± 20 | 1546.9 ± 20
